System: 991263-137-R1-J2-PDC complex spheroid viability
Assay: Anticancer human tumor 991263-137-R1-J2-PDC patient-derived colon adenocarcinoma cell line growth inhibition [POLQ]
Settings: for IC50: curve of first compound; for viability, T/C: stronger effect = lower value
How it was run: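 PDC + HUVEC + MSC complex spheroids; POLQ inhibitors ± partner drugs; top conc. at/near clinical Cmax, else 10 microM (SN-38 1 microM), half-log dilutions; 37 degrees C, 5% CO2.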

[1] = second compound 0.0316 µM, first compound 0.0316 µM
[2] = second compound 0.0316 µM, first compound 0.1 µM
[3] = second compound 0.0316 µM, first compound 0.316 µM
[4] = second compound 0.0316 µM, first compound 1 µM
[5] = second compound 0.0316 µM, first compound 3.16 µM
[6] = second compound 0.0316 µM, first compound 10 µM
[7] = second compound 0.1 µM, first compound 0.0316 µM
[8] = second compound 0.1 µM, first compound 0.1 µM
[9] = second compound 0.1 µM, first compound 0.316 µM
[10] = second compound 0.1 µM, first compound 1 µM
[11] = second compound 0.1 µM, first compound 3.16 µM
[12] = second compound 0.1 µM, first compound 10 µM
[13] = second compound 0.316 µM, first compound 0.0316 µM
[14] = second compound 0.316 µM, first compound 0.1 µM
[15] = second compound 0.316 µM, first compound 0.316 µM
[16] = second compound 0.316 µM, first compound 1 µM
[17] = second compound 0.316 µM, first compound 3.16 µM
[18] = second compound 0.316 µM, first compound 10 µM
[19] = second compound 1 µM, first compound 0.0316 µM
[20] = second compound 1 µM, first compound 0.1 µM
[21] = second compound 1 µM, first compound 0.316 µM
[22] = second compound 1 µM, first compound 1 µM
[23] = second compound 1 µM, first compound 3.16 µM
[24] = second compound 1 µM, first compound 10 µM
[25] = second compound 3.16 µM, first compound 0.0316 µM
[26] = second compound 3.16 µM, first compound 0.1 µM
[27] = second compound 3.16 µM, first compound 0.316 µM
[28] = second compound 3.16 µM, first compound 1 µM
[29] = second compound 3.16 µM, first compound 3.16 µM
[30] = second compound 3.16 µM, first compound 10 µM
[31] = second compound 10 µM, first compound 0.0316 µM
[32] = second compound 10 µM, first compound 0.1 µM
[33] = second compound 10 µM, first compound 0.316 µM
[34] = second compound 10 µM, first compound 1 µM
[35] = second compound 10 µM, first compound 3.16 µM
[36] = second compound 10 µM, first compound 10 µM
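Also: spheroids exposed to compounds for 7 days before readout.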
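For viability, T/C in this document: 100% = DMSO vehicle control viability.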

Structure (SMILES): CCCS(=O)(=O)Nc1ccc(F)c(C(=O)c2c[nH]c3ncc(-c4ccc(Cl)cc4)cc23)c1F + Nc1ccc(C#CCN(C(=O)Cc2ncc(C(F)(F)F)cc2C(F)(F)F)c2ccc(F)cc2)nn1
- IC50 (second compound 0.0316 µM): > 10 µM
- IC50 (second compound 0.1 µM): > 10 µM
- IC50 (second compound 0.316 µM): > 10 µM
- IC50 (second compound 1 µM): > 10 µM
- IC50 (second compound 3.16 µM): > 10 µM
- IC50 (second compound 10 µM): > 10 µM
- viability, T/C [1]: 114%
- viability, T/C [2]: 98.2%
- viability, T/C [3]: 103%
- viability, T/C [4]: 107%
- viability, T/C [5]: 117%
- viability, T/C [6]: 102%
- viability, T/C [7]: 97.6%
- viability, T/C [8]: 101%
- viability, T/C [9]: 97.2%
- viability, T/C [10]: 110%
- viability, T/C [11]: 103%
- viability, T/C [12]: 103%
- viability, T/C [13]: 105%
- viability, T/C [14]: 114%
- viability, T/C [15]: 108%
- viability, T/C [16]: 98.7%
- viability, T/C [17]: 128%
- viability, T/C [18]: 95.1%
- viability, T/C [19]: 93.9%
- viability, T/C [20]: 102%
- viability, T/C [21]: 112%
- viability, T/C [22]: 117%
- viability, T/C [23]: 117%
- viability, T/C [24]: 107%
- viability, T/C [25]: 117%
- viability, T/C [26]: 97.3%
- viability, T/C [27]: 111%
- viability, T/C [28]: 93.2%
- viability, T/C [29]: 111%
- viability, T/C [30]: 115%
- viability, T/C [31]: 90.2%
- viability, T/C [32]: 112%
- viability, T/C [33]: 95.7%
- viability, T/C [34]: 104%
- viability, T/C [35]: 115%
- viability, T/C [36]: 116%

Structure (SMILES): COc1ccc([C@@H](O)c2cc(-c3ncnc4cc(N5CCOCC5)ccc34)c(F)cc2Cl)nn1 + Nc1ccc(C#CCN(C(=O)Cc2ncc(C(F)(F)F)cc2C(F)(F)F)c2ccc(F)cc2)nn1
- IC50 (second compound 0.0316 µM): 5.34 µM
- IC50 (second compound 0.1 µM): 4.8 µM
- IC50 (second compound 0.316 µM): 6.69 µM
- IC50 (second compound 1 µM): 5.15 µM
- IC50 (second compound 3.16 µM): 4.04 µM
- IC50 (second compound 10 µM): 2.96 µM
- viability, T/C [1]: 110%
- viability, T/C [2]: 96.3%
- viability, T/C [3]: 93.1%
- viability, T/C [4]: 88.9%
- viability, T/C [5]: 66.2%
- viability, T/C [6]: 30.4%
- viability, T/C [7]: 105%
- viability, T/C [8]: 120%
- viability, T/C [9]: 91.1%
- viability, T/C [10]: 85.6%
- viability, T/C [11]: 59.2%
- viability, T/C [12]: 33.8%
- viability, T/C [13]: 100%
- viability, T/C [14]: 105%
- viability, T/C [15]: 96.5%
- viability, T/C [16]: 98.2%
- viability, T/C [17]: 87.9%
- viability, T/C [18]: 29.5%
- viability, T/C [19]: 107%
- viability, T/C [20]: 101%
- viability, T/C [21]: 99.5%
- viability, T/C [22]: 93.7%
- viability, T/C [23]: 64.7%
- viability, T/C [24]: 29.6%
- viability, T/C [25]: 97.1%
- viability, T/C [26]: 102%
- viability, T/C [27]: 87.1%
- viability, T/C [28]: 94%
- viability, T/C [29]: 55.5%
- viability, T/C [30]: 29.5%
- viability, T/C [31]: 99.9%
- viability, T/C [32]: 95.6%
- viability, T/C [33]: 95.4%
- viability, T/C [34]: 82.5%
- viability, T/C [35]: 48%
- viability, T/C [36]: 28.6%

Structure (SMILES): Cn1ncnc1[C@H]1c2n[nH]c(=O)c3cc(F)cc(c23)N[C@@H]1c1ccc(F)cc1 + Nc1ccc(C#CCN(C(=O)Cc2ncc(C(F)(F)F)cc2C(F)(F)F)c2ccc(F)cc2)nn1
- IC50 (second compound 0.0316 µM): > 0.1 µM
- IC50 (second compound 0.1 µM): > 0.1 µM
- IC50 (second compound 0.316 µM): > 0.1 µM
- IC50 (second compound 1 µM): > 0.1 µM
- IC50 (second compound 3.16 µM): > 0.1 µM
- IC50 (second compound 10 µM): > 0.1 µM
- viability, T/C (second compound 0.0316 µM, first compound 0.000316 µM): 106%
- viability, T/C (second compound 0.0316 µM, first compound 0.001 µM): 97.1%
- viability, T/C (second compound 0.0316 µM, first compound 0.00316 µM): 99.6%
- viability, T/C (second compound 0.0316 µM, first compound 0.01 µM): 98.8%
- viability, T/C [1]: 106%
- viability, T/C [2]: 94%
- viability, T/C (second compound 0.1 µM, first compound 0.000316 µM): 99.1%
- viability, T/C (second compound 0.1 µM, first compound 0.001 µM): 102%
- viability, T/C (second compound 0.1 µM, first compound 0.00316 µM): 95.2%
- viability, T/C (second compound 0.1 µM, first compound 0.01 µM): 107%
- viability, T/C [7]: 106%
- viability, T/C [8]: 110%
- viability, T/C (second compound 0.316 µM, first compound 0.000316 µM): 93.7%
- viability, T/C (second compound 0.316 µM, first compound 0.001 µM): 95.1%
- viability, T/C (second compound 0.316 µM, first compound 0.00316 µM): 94.2%
- viability, T/C (second compound 0.316 µM, first compound 0.01 µM): 105%
- viability, T/C [13]: 109%
- viability, T/C [14]: 82.9%
- viability, T/C (second compound 1 µM, first compound 0.000316 µM): 96.8%
- viability, T/C (second compound 1 µM, first compound 0.001 µM): 103%
- viability, T/C (second compound 1 µM, first compound 0.00316 µM): 112%
- viability, T/C (second compound 1 µM, first compound 0.01 µM): 109%
- viability, T/C [19]: 104%
- viability, T/C [20]: 94.5%
- viability, T/C (second compound 3.16 µM, first compound 0.000316 µM): 101%
- viability, T/C (second compound 3.16 µM, first compound 0.001 µM): 92%
- viability, T/C (second compound 3.16 µM, first compound 0.00316 µM): 98.3%
- viability, T/C (second compound 3.16 µM, first compound 0.01 µM): 97.7%
- viability, T/C [25]: 101%
- viability, T/C [26]: 112%
- viability, T/C (second compound 10 µM, first compound 0.000316 µM): 99.3%
- viability, T/C (second compound 10 µM, first compound 0.001 µM): 106%
- viability, T/C (second compound 10 µM, first compound 0.00316 µM): 97.1%
- viability, T/C (second compound 10 µM, first compound 0.01 µM): 103%
- viability, T/C [31]: 101%
- viability, T/C [32]: 110%

— PubChem BioAssay AID1963828 (Molecular Pharmacology Branch, DTP, NCI, 2024)
